According to the supplement of paper PMC10307832:

Columns and labels:
Experiment in all cases: relative viability (nuclei count vs DMSO), 5 days (fraction); higher = more cells survive
Cediranib + Palbociclib = compound: COc1cc2c(Oc3ccc4[nH]c(C)cc4c3F)ncnc2cc1OCCCN1CCCC1 [Cediranib] + CC(=O)c1c(C)c2cnc(Nc3ccc(N4CCNCC4)cn3)nc2n(C2CCCC2)c1=O [Palbociclib] (partner 0.5 µM)
Summary of the method: (§1)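 Relative viability divides the nuclei count in treated wells by that in vehicle wells. Lung cancer cell lines were seeded in 1536-well plates, dosed by pin tool the next day, and fixed and stained after 5 days in one step with final 0.05% Triton X-100, 1% formaldehyde and 1 ug/ml Hoechst. Dosing was a single drug or a fixed anchor-drug dose plus five library-drug doses (not always all listed) in √10 steps, and values are medians of duplicate plates imaged at 4×.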

Cediranib + Tozasertib = compound: COc1cc2c(Oc3ccc4[nH]c(C)cc4c3F)ncnc2cc1OCCCN1CCCC1 [Cediranib] + Cc1cc(Nc2cc(N3CCN(C)CC3)nc(Sc3ccc(NC(=O)C4CC4)cc3)n2)n[nH]1 [Tozasertib] (partner 0.1 µM)
Summary of the method: as §1

Decitabine + OSI-027 = compound: Nc1ncn([C@H]2C[C@H](O)[C@@H](CO)O2)c(=O)n1 [Decitabine] + COc1cccc2cc(-c3nc([C@H]4CC[C@H](C(=O)O)CC4)n4ncnc(N)c34)[nH]c12 [OSI-027] (partner 0.5 µM)
Summary of the method: as §1

[1] = compound: O=C(C[C@H]1NCCC[C@@H]1O)Cn1cnc2cc(Br)c(Cl)cc2c1=O (racemic) [Halofuginone] + N=C(N)NC(=N)NCCc1ccccc1 [Phenformin] (partner 250 µM)
Summary of the method: as §1

Row | Cell Line | relative viability (Cediranib + Palbociclib; first compound 0.04 µM) | relative viability (Cediranib + Palbociclib; first compound 0.4 µM) | relative viability (Cediranib + Palbociclib; first compound 1.265 µM) | relative viability (Cediranib + Palbociclib; first compound 4 µM) | relative viability (Cediranib + Tozasertib; first compound 0.04 µM) | relative viability (Cediranib + Tozasertib; first compound 0.4 µM) | relative viability (Cediranib + Tozasertib; first compound 1.265 µM) | relative viability (Cediranib + Tozasertib; first compound 4 µM) | relative viability (Decitabine + OSI-027; first compound 0.04 µM) | relative viability (Decitabine + OSI-027; first compound 0.1265 µM) | relative viability (Decitabine + OSI-027; first compound 0.4 µM) | relative viability (Decitabine + OSI-027; first compound 4 µM) | relative viability ([1]; first compound 0.001 µM) | relative viability ([1]; first compound 0.003162 µM) | relative viability ([1]; first compound 0.01 µM) | relative viability ([1]; first compound 0.03162 µM) | relative viability ([1]; first compound 0.1 µM) | relative viability (Cediranib + Palbociclib; first compound 0.1265 µM) | relative viability (Cediranib + Tozasertib; first compound 0.1265 µM) | relative viability (Decitabine + OSI-027; first compound 1.265 µM)
1 | NCI-H3122 | 0.209 | 0.186 | 0.199 | 0.175 | 0.393 | 0.364 | 0.53 | 0.468 | 0.814 | 0.955 | 0.468 | 0.559 | 0.379 | 0.37 | 0.356 | 0.355 | 0.383 |  |  | 
2 | COR-L 105 | 0.413 | 0.426 | 0.394 | 0.414 | 0.392 | 0.343 | 0.329 | 0.388 | 0.425 | 0.581 | 0.65 | 0.585 | 0.492 | 0.467 | 0.488 | 0.516 | 0.381 | 0.405 | 0.364 | 0.526
3 | BEN | 0.437 | 0.489 | 0.451 | 0.47 | 0.446 | 0.554 |  | 0.627 | 0.297 | 0.315 | 0.273 | 0.289 | 0.263 | 0.263 | 0.26 | 0.285 | 0.237 | 0.412 |  | 0.295
4 | NCI-H1915 | 0.549 | 0.506 | 0.512 | 0.553 | 0.467 | 0.428 | 0.46 | 0.42 | 0.447 | 0.429 | 0.29 | 0.263 | 0.361 | 0.386 | 0.366 | 0.339 | 0.355 | 0.491 | 0.384 | 0.312
5 | NCI-H650 | 0.381 | 0.334 | 0.34 | 0.308 | 0.739 | 0.709 | 0.774 | 0.707 | 0.462 | 0.454 | 0.306 | 0.276 | 0.507 | 0.501 | 0.437 | 0.424 | 0.374 | 0.321 | 0.563 | 0.291
6 | NCI-H1650 | 0.421 | 0.304 | 0.404 | 0.334 | 0.585 | 0.36 | 0.476 | 0.329 | 0.422 | 0.495 | 0.321 | 0.341 | 0.495 | 0.467 | 0.413 | 0.442 | 0.188 | 0.328 | 0.374 | 0.285
7 | NCI-H2009 | 0.308 | 0.19 | 0.0997 | 0.211 | 0.775 | 0.703 | 0.732 | 0.795 | 0.518 | 0.437 | 0.336 | 0.25 | 0.485 | 0.52 | 0.473 | 0.449 | 0.271 | 0.188 | 0.763 | 0.296
8 | COR-L23 | 0.282 | 0.279 | 0.353 | 0.263 | 0.182 | 0.19 | 0.264 | 0.183 | 0.415 | 0.401 | 0.335 | 0.158 | 0.489 | 0.431 | 0.482 | 0.415 | 0.303 | 0.349 | 0.192 | 0.227
9 | NCI-H460 | 0.196 | 0.21 | 0.161 | 0.202 | 0.494 | 0.429 | 0.603 | 0.355 | 0.603 | 0.848 | 0.598 | 0.215 | 0.512 | 0.549 | 0.543 | 0.493 | 0.126 | 0.175 | 0.391 | 0.308
10 | NCI-H522 | 1.04 | 0.891 | 0.998 | 1.07 | 0.687 | 0.541 | 0.535 | 0.51 | 0.695 | 0.827 | 0.561 | 0.582 | 0.73 | 0.653 | 0.649 | 0.648 | 0.657 | 0.899 | 0.465 | 0.609
11 | LCLC-103H | 0.494 | 0.511 | 0.469 | 0.521 | 0.501 | 0.467 | 0.469 | 0.5 | 0.406 | 0.472 | 0.462 | 0.376 | 0.35 | 0.341 | 0.323 | 0.326 | 0.309 | 0.47 | 0.505 | 0.376
12 | HCC-827 | 0.559 | 0.433 | 0.629 | 0.424 | 0.529 | 0.407 | 0.414 | 0.351 | 0.129 | 0.37 | 0.311 | 0.27 | 0.407 | 0.426 | 0.373 | 0.434 | 0.38 | 0.54 |  | 0.202
13 | NCI-H322M | 0.46 | 0.464 | 0.492 | 0.524 | 0.484 | 0.473 | 0.424 | 0.486 | 0.507 | 0.496 | 0.432 | 0.441 | 0.783 | 0.728 | 0.721 | 0.566 | 0.478 | 0.589 | 0.564 | 0.473
14 | NCI-H1666 | 0.681 | 0.636 | 0.644 | 0.658 | 0.651 | 0.598 | 0.595 | 0.624 | 0.785 | 0.82 | 0.742 | 0.676 | 0.587 | 0.612 | 0.562 | 0.56 | 0.475 | 0.61 | 0.678 | 0.595
15 | NCI-H1793 | 0.306 | 0.3 | 0.271 | 0.311 | 0.414 | 0.347 |  | 0.329 | 0.204 | 0.277 | 0.289 | 0.233 | 0.438 | 0.388 | 0.429 | 0.328 | 0.332 | 0.277 | 0.419 | 0.277
16 | NCI-H1437 | 0.32 | 0.291 | 0.349 | 0.335 | 0.434 | 0.365 | 0.412 | 0.421 | 0.717 | 0.732 | 0.495 | 0.3 | 0.329 | 0.308 | 0.3 | 0.297 | 0.258 | 0.305 | 0.426 | 0.382
